Measurements: patent publication US20240228555A9, “ANTIMICROBIAL PEPTIDOMIMETICS” (Basilea Pharmaceutica International AG, Allschwil, priority 2020, published 2024)
Where a SMILES comes first, the peptide text is derived from it. Bridges are numbered along the chain shown (N, C = ends). [ ]: non-standard residue; d: D form. Orn(iPr) = CC(C)NCCC[C@H](N)C(=O)O; Dab(iPr) = CC(C)NCC[C@H](N)C(=O)O; Hyp = O=C(O)[C@@H]1C[C@@H](O)CN1; Pen = CC(C)(S)[C@H](N)C(=O)O; dDab = NCC[C@@H](N)C(=O)O; Dab = NCC[C@H](N)C(=O)O

How the values were obtained:
[1] = tested on: human red blood cells (hRBC); format: cell-based; details: red cells of human, 1 h, 0.2 g/L
Method: (§1) Lyophilized peptides were weighed on a Microbalance (Mettler MT5) and dissolved in sterile water to a final concentration of 1 mg/mL. Stock solutions were kept at +4° C., light protected.
The peptides were tested for their hemolytic activity against human red blood cells (hRBC). Fresh hRBC were washed three times with phosphate buffered saline (PBS) and centrifuged for 5 min at 3000×g. Compounds (200 μg/mL) were incubated with 20% hRBC (v/v) for 1 h at 37° C. and shaking at 300 rpm. A value of 0% and 100% cell lyses, respectively, was determined by incubation of hRBC in the presence of PBS and 2.5% Triton X-100 in H2O, respectively. The samples were centrifuged, the supernatants were 8-fold diluted in PBS buffer and the optical densities (OD) were measured at 540 nm. The 100% lyses value (OD540H2O) gave an OD540 of approximately 0.5-1.0.
Percent hemolysis was calculated as follows: (OD540peptide/OD540H2O)×100%.

[2] = tested on: Klebsiella pneumoniae SSI3010; details: SSI3010
Method: as §1
(§2) Colonies of the microorganisms were diluted in saline (0.85%, NaCl) and adjusted using a McFarland reader (bioMérieux SA, Marcy-l'Etoile, France) to 0.5 McFarland standard. Subsequently, the bacterial suspension was diluted in Mueller-Hinton II (MHII, cation adjusted) broth to give approximately 5×10^5 colony forming units (CFU/mL).
(§3) 10^6 colony forming units (CFU)/mL. Aliquots (90 μl) of inoculate were added to 10 μl of water+P-80 (Polysorbate 80, 0.002% final concentration) containing the peptide in serial two-fold dilutions at 10 fold final concentration. The following microorganisms were used to determine antibiotic selectivity of the peptides: Escherichia coli ATCC 25922, Escherichia coli MCR-1 Af 45 and Klebsiella pneumoniae SSI3010.

[3] = tested on: Escherichia coli ATCC 25922; details: ATCC 25922
Method: as §1, §2, §3

[4] = tested on: Escherichia coli MCR-1 Af 45; details: Mueller-Hinton broth II, no visible growth after 18-20 hours at 35° C.
Method: as §1, §2, §3

SMILES	Hemolysis at 0.2 g/L [1] [%]	Klebsiella pneumoniae SSI3010 MIC [2] [mg/L]	Escherichia coli ATCC 25922 MIC [3] [mg/L]	Escherichia coli MCR-1 Af 45 MIC [4] [mg/L]
CC[C@H](C)[C@H](NC(=O)[C@@H](NC(=O)[C@@H]1C[C@@H](O)CN1C(=O)[C@@H](N)C(C)C)[C@@H](C)CC)C(=O)N[C@@H](Cc1ccc(O)cc1)C(=O)N[C@@H]1C(=O)N[C@@H](CC(N)=O)C(=O)N[C@@H](CCCNC(=N)N)C(=O)N[C@@H](CCN)C(=O)N[C@@H](CO)C(=O)N[C@H](CCN)C(=O)N[C@@H](CCCCN)C(=O)N[C@H](C(=O)N[C@@H](CCN)C(=O)N[C@H](C(=O)N[C@@H](Cc2ccc(O)cc2)C(=O)O)[C@@H](C)O)CSSC1(C)C [Example 112, Val-Hyp-Ile-Ile-Tyr-Pen-Asn-Arg-Dab-Ser-^DDab-Lys-Cys-Dab-Thr-Tyr] (HELM PEPTIDE1{V.[Hyp].I.I.Y.[Pen].N.R.[Dab].S.[NCC[C@@H](N[*:1])C(=O)[*:2]].K.C.[Dab].T.Y}$PEPTIDE1,PEPTIDE1,6:R3-13:R3$$$V2.0)	<1	0.25	0.25	0.0625
CC[C@H](C)[C@@H]1NC(=O)[C@@H](CCN)NC(=O)[C@H]([C@@H](C)O)NC(=O)[C@H](CCN)NC(=O)[C@H](CCCNC(=N)N)NC(=O)[C@H](CC(N)=O)NC(=O)[C@@H](NC(=O)[C@H](Cc2ccc(O)cc2)NC(=O)[C@@H](NC(=O)[C@@H](NC(=O)[C@@H]2C[C@@H](N)CN2C(=O)[C@@H](N)C(C)C)[C@@H](C)CC)[C@@H](C)O)C(C)(C)SSC[C@@H](C(=O)N[C@@H](CCN)C(=O)N[C@H](C(=O)N[C@@H](Cc2ccc(O)cc2)C(=O)O)[C@@H](C)O)NC1=O [Example 117, Val-Pro((4R)NH2)-Ile-Thr-Tyr-Pen-Asn-Arg-Dab-Thr-^DDab-Ile-Cys-Dab-Thr-Tyr] (HELM PEPTIDE1{V.[N[C@@H]1C[C@@H](C(=O)[*:2])N([*:1])C1].I.T.Y.[Pen].N.R.[Dab].T.[NCC[C@@H](N[*:1])C(=O)[*:2]].I.C.[Dab].T.Y}$PEPTIDE1,PEPTIDE1,6:R3-13:R3$$$V2.0)	<1	0.25	0.125	0.125
CC[C@H](C)[C@H](NC(=O)[C@@H]1C[C@@H](N)CN1C(=O)[C@@H](N)C(C)C)C(=O)N[C@H](C(=O)N[C@@H](Cc1ccc(O)cc1)C(=O)N[C@@H]1C(=O)N[C@@H](CC(N)=O)C(=O)N[C@@H](CCCNC(=N)N)C(=O)N[C@@H](CCN)C(=O)N[C@@H]([C@@H](C)O)C(=O)N[C@H](CCN)C(=O)N[C@@H](CCCCN)C(=O)N[C@H](C(=O)N[C@@H](CCN)C(=O)N[C@H](C(=O)N[C@@H](Cc2ccc(O)cc2)C(=O)O)[C@@H](C)O)CSSC1(C)C)[C@@H](C)O [Example 120, Val-Pro((4R)NH2)-Ile-Thr-Tyr-Pen-Asn-Arg-Dab-Thr-^DDab-Lys-Cys-Dab-Thr-Tyr] (HELM PEPTIDE1{V.[N[C@@H]1C[C@@H](C(=O)[*:2])N([*:1])C1].I.T.Y.[Pen].N.R.[Dab].T.[NCC[C@@H](N[*:1])C(=O)[*:2]].K.C.[Dab].T.Y}$PEPTIDE1,PEPTIDE1,6:R3-13:R3$$$V2.0)	<1	0.5	0.25	0.125
CC[C@H](C)[C@H](NC(=O)[C@@H]1C[C@@H](O)CN1C(=O)[C@@H](N)C(C)C)C(=O)N[C@H](C(=O)N[C@@H](Cc1ccc(O)cc1)C(=O)N[C@@H]1C(=O)N[C@@H](CC(N)=O)C(=O)N[C@@H](CCCNC(=N)N)C(=O)N[C@@H](CCNC(C)C)C(=O)N[C@@H]([C@@H](C)O)C(=O)N[C@H](CCN)C(=O)N[C@@H](CCCCN)C(=O)N[C@H](C(=O)N[C@@H](CCN)C(=O)N[C@@H](CCCNC(C)C)C(=O)N[C@@H](Cc2ccc(O)cc2)C(=O)O)CSSC1(C)C)[C@@H](C)O [Example 134, Hyp-Ile-Thr-Tyr-Pen-Asn-Arg-Dab(iPr)-Thr-^DDab-Lys-Cys-Dab-Orn(iPr)-Tyr] (H-V[Hyp]ITY[Pen]NR[Dab(iPr)]T[dDab]KC[Dab][Orn(iPr)]Y-OH; disulfide 6-13)	1	0.5	0.125	0.25
CC[C@H](C)[C@H](NC(=O)[C@@H]1C[C@@H](O)CN1C(=O)[C@@H](N)C(C)C)C(=O)N[C@@H](CCN)C(=O)N[C@@H](Cc1ccc(O)cc1)C(=O)N[C@@H]1C(=O)N[C@@H](CC(N)=O)C(=O)N[C@@H](CCCNC(=N)N)C(=O)N[C@@H](CCN)C(=O)N[C@@H](CO)C(=O)N[C@H](CCN)C(=O)N[C@@H](CCCCN)C(=O)N[C@H](C(=O)N[C@@H](CCN)C(=O)N[C@@H](CCN)C(=O)N[C@@H](Cc2ccc(O)cc2)C(=O)O)CSSC1(C)C [Example 81, Val-Hyp-Ile-Dab-Tyr-Pen-Asn-Arg-Dab-Ser-^DDab-Lys-Cys-Dab-Dab-Tyr] (HELM PEPTIDE1{V.[Hyp].I.[Dab].Y.[Pen].N.R.[Dab].S.[NCC[C@@H](N[*:1])C(=O)[*:2]].K.C.[Dab].[Dab].Y}$PEPTIDE1,PEPTIDE1,6:R3-13:R3$$$V2.0)	<1	0.5	0.125	0.0625
CC[C@H](C)[C@H](NC(=O)[C@@H]1C[C@@H](O)CN1C(=O)[C@@H](N)C(C)C)C(=O)N[C@H](C(=O)N[C@@H](Cc1ccc(O)cc1)C(=O)N[C@@H]1C(=O)N[C@@H](CC(N)=O)C(=O)N[C@@H](CCCNC(=N)N)C(=O)N[C@@H](CCNC(C)C)C(=O)N[C@@H]([C@@H](C)O)C(=O)N[C@H](CCN)C(=O)N[C@@H](CCCCN)C(=O)N[C@H](C(=O)N[C@@H](CCNC(C)C)C(=O)N[C@@H](CCCNC(=N)N)C(=O)N[C@@H](Cc2ccc(O)cc2)C(=O)O)CSSC1(C)C)[C@@H](C)O [Example 135, Hyp-Ile-Thr-Tyr-Pen-Asn-Arg-Dab(iPr)-Thr-^DDab-Lys-Cys-Dab(iPr)-Arg-Tyr] (H-V[Hyp]ITY[Pen]NR[Dab(iPr)]T[dDab]KC[Dab(iPr)]RY-OH; disulfide 6-13)	<1	0.5	0.25	0.25
CC[C@H](C)[C@H](NC(=O)[C@@H](NC(=O)[C@@H]1C[C@@H](O)CN1C(=O)[C@@H](N)C(C)C)[C@@H](C)CC)C(=O)N[C@@H](Cc1ccc(O)cc1)C(=O)N[C@@H]1C(=O)N[C@@H](CC(N)=O)C(=O)N[C@@H](CCCNC(=N)N)C(=O)N[C@@H](CCN)C(=O)N[C@@H]([C@@H](C)O)C(=O)N[C@H](CCN)C(=O)N[C@@H](CCCCN)C(=O)N[C@H](C(=O)N[C@@H](CO)C(=O)N[C@@H](CCCNC(=N)N)C(=O)N[C@@H](Cc2ccc(O)cc2)C(=O)O)CSSC1(C)C [Example 107, Val-Hyp-Ile-Ile-Tyr-Pen-Asn-Arg-Dab-Thr-^DDab-Lys-Cys-Ser-Arg-Tyr] (HELM PEPTIDE1{V.[Hyp].I.I.Y.[Pen].N.R.[Dab].T.[NCC[C@@H](N[*:1])C(=O)[*:2]].K.C.S.R.Y}$PEPTIDE1,PEPTIDE1,6:R3-13:R3$$$V2.0)	<1	0.5	0.25	0.25
CC[C@H](C)[C@H](NC(=O)[C@@H](NC(=O)[C@@H]1C[C@@H](O)CN1C(=O)[C@@H](N)C(C)C)[C@@H](C)CC)C(=O)N[C@@H](Cc1ccc(O)cc1)C(=O)N[C@@H]1C(=O)N[C@@H](CC(N)=O)C(=O)N[C@@H](CCCNC(=N)N)C(=O)N[C@@H](CCN)C(=O)N[C@@H]([C@@H](C)O)C(=O)N[C@H](CCN)C(=O)N[C@@H](CCCCN)C(=O)N[C@H](C(=O)N[C@@H](CCN)C(=O)N[C@H](C(=O)N[C@@H](Cc2ccc(O)cc2)C(=O)O)[C@@H](C)O)CSSC1(C)C [Example 111, Val-Hyp-Ile-Ile-Tyr-Pen-Asn-Arg-Dab-Thr-^DDab-Lys-Cys-Dab-Thr-Tyr] (HELM PEPTIDE1{V.[Hyp].I.I.Y.[Pen].N.R.[Dab].T.[NCC[C@@H](N[*:1])C(=O)[*:2]].K.C.[Dab].T.Y}$PEPTIDE1,PEPTIDE1,6:R3-13:R3$$$V2.0)	<1	0.5	0.25	0.125
